Results: PMC5762338, “A novel orally available Syk/Src/Jak2 inhibitor, SKLB-850, showed potent anti-tumor activities in B cell lymphoma (BCL) models” (Oncotarget, 2017)

Assays:
Format in all cases: cell-based, Human
[1] = system: B-cell lymphoma samples from BCL patients; assay: Apoptosis of B-cell lymphoma samples from BCL patients, FCM; conditions: BCL patient samples, 24 hours, concentration not given
Description: The ability of inducing apoptosis of SKLB-850 in tumor tissues was examined by TUNEL. […] We then examined apoptotic tumor cells in B-cell lymphoma samples from BCL patients after SKLB-850 treatment by FCM. As shown in Figure 6C and 6F, SKLB-850 induced cell apoptosis (14.10 ± 4.04%), and R788 had the same effect but relatively weak (7.60 ± 0.52%). To better understand the mechanism of antitumor activities in vivo, Ki67 and CD20 in mouse tumor tissues were detected by immunohischemistry; Ki67 was a marker of proliferation in the diagnosis of tumors and CD20 was highly expressed in B cell lymphomas.
Figure 6 SKLB-850 inhibited tumor growth by inducing apoptosis of tumor tissues from the Ramos model and BCL samples from patients (A and D) TUNEL immunofluorescent staining of tumor tissues from the Ramos model (n-6 mice per group). (B and E) Immunohistochemical staining analyses of Ki67 and CD20 in tumor tissues from the Ramos model. (C and F) Apoptosis of tumor cells from the BCL patients induced by SKLB-850. Tumor tissues from BCL patients were treated with a series of concentrations of SKLB-850 or R788, and stained with AnnexinV-FITC and propidium iodide, then analyzed with a flow cytometer. […]
Human lymph nodes were collected aseptically from B-cell lymphoma patients (n = 4 for both groups, Supplementary Table 1). […] Cell apoptosis was analyzed with a flow cytometer (BD FACS Calibur, BD, USA).

Ramos cells = assay: Cell cycle analysis by FCM; conditions: 18 hours; for percentages of cells in the G2 phase (in words): compared with the control
Protocol: (§1) FCM was again used to examine the influence of SKLB-850 on the tumor cell cycle.
(§2) Figure 2 Cell cycle analysis of Ramos and HBL-1 cells induced by SKLB-850, R788 DMSO or control Tumor cells were treated by vehicle, R788 or indicated concentrations of compounds. After 18 hours, cell were harvested and stained with AnnexinV-FITC and propidium iodide, and then analyzed by FCM. […] (A and C) Cell cycle analysis of Ramos cells. (B and D) Cell cycle analysis of HBL-1 cells. […] Columns, mean; bars, SD.^##P < 0.01, 850 group versus DMSO or blank control group.
(§3) Ramos and HBL-1 cells cultured in 6-well plates were treated with DMSO, R788, SKLB-850 or medium. After 18 hours, cells were harvested and washed with PBS, fixed with 70% ethanol for 30 min, stained with 200 μL PI (50 μg/mL PI with 1 mg/mL RNase I, and 0.1% Triton X-100) for 30 min. Cell cycle was analyzed with a flow cytometer (BD FACSCalibur, BD, USA).

HBL-1 cells = assay: Cell cycle analysis by FCM; conditions: HBL-1, compared with the control, 18 hours
Protocol: as §1, §2, §3

SMILES	cell apoptosis [1]	percentages of cells in the G2 phase (in words) (Ramos cells)	percentages of cells in the G2 phase (in words) (HBL-1 cells)	percentage of G2 phase cells (Ramos cells; 0.01μg/mL, control 19.64 ± 0.61 %)
COc1cc(Nc2ncc(F)c(Nc3ccc4c(n3)N(COP(=O)(O)O)C(=O)C(C)(C)O4)n2)cc(OC)c1OC [R788, reference compound]	7.60 ± 0.52%	very weak effect	very weak effect	–
CN1CCN(c2ccc(Nc3ncc(F)c(Nc4ccc(Cl)cc4C(N)=O)n3)cc2)CC1 [SKLB-850, 5-chloro-2-((5-fluoro-2-((4-(4-methylpiperazin-1-yl)phenyl)amino)pyrimidin-4-yl)amino) benzamide]	14.10 ± 4.04%	significantly increased	significantly increased	53.90 ± 2.65%
